# Test system: mu opiate receptor (MOR)
# Test: MOR agonist activity using [35S]GTPγS binding assay in striatal membranes
# Format: biochemical
# Settings: Series C-1; 0.1 μM compound, relative to DAMGO
# Method: To assess the mu opiate receptor (MOR) agonist activity of positive compounds from the FLNA screening, compounds were tested in a [^35S]GTPγS binding assay using striatal membranes. […] This assay measures a functional consequence of receptor occupancy at one of the earliest receptor-mediated events. The assay permits traditional pharmacological parameters of potency, efficacy and antagonist affinity, with the advantage that agonist measures are not subjected to amplification or other modulation that may occur when analyzing parameters further downstream of the receptor.
# Thus, striatal tissue was homogenized in 10 volumes of ice cold 25 mM HEPES buffer, pH 7.4, which contained 1 mM EGTA, 100 mM sucrose, 50 μg/ml leupeptin, 0.04 mM PMSF, 2 μg/ml soybean trypsin inhibitor and 0.2% 2-mercaptoethanol. The homogenates were centrifuged at 800×g for 5 minutes and the supernatants were centrifuged at 49,000×g for 20 minutes. The resulting pellets were suspended in 10 volume of reaction buffer, which contained 25 mM HEPES, pH 7.5, 100 mM NaCl, 50 μg/ml leupeptin, 2 μg/ml soybean trypsin inhibitor, 0.04 mM PMSF and 0.02% […].
# The resultant striatal membrane preparation (200 μg) was admixed and maintained (incubated) at 30° C. for 5 minutes in reaction buffer as above that additionally contained 1 mM MgCl2 and 0.5 nM [^35S]GTPγS (0.1 μCi/assay, PerkinElmer Life and Analytical Sciences) in a total volume of 250 μl and continued for 5 minutes in the absence or presence of 0.1-10 μM of an assayed compound of interest. The reaction was terminated by dilution with 750 μl of ice-cold reaction buffer that contained 20 mM MgCl2 and 1 mM EGTA and immediate centrifugation at 16,000×g for 5 minutes.
# The resulting pellet was solubilized by sonicating for 10 seconds in 0.5 ml of immunoprecipitation buffer containing 0.5% digitonin, 0.2% sodium cholate and 0.5% NP-40. Normal rabbit serum (1 μl) was added to 1 ml of lysate and incubated at 25° C. for 30 minutes. Nonspecific immune complexes were removed by incubation with 25 μl of protein A/G-conjugated agarose beads at 25° C. for 30 minutes followed by centrifugation at 5,000×g at 4° C. for 5 minutes. The supernatant was divided and separately incubated at 25° C. for 30 minutes with antibodies raised against Gαo proteins (1:1,000 dilutions).
# The immunocomplexes so formed were collected by incubation at 25° C. for 30 minutes with 40 μl of agarose-conjugated protein A/G beads and centrifugation at 5,000×g at 4° C. for 5 minutes. The pellet was washed and suspended in buffer containing 50 mM Tris-HCl, pH 8.0, and 1% NP-40. The radioactivity in the suspension was determined by liquid scintillation spectrometry.
row,SMILES,% DAMGO (0.1 μM) [%]
1,COc1ccc(S(=O)(=O)N2CCC3(CC2)OCCN3S(=O)(=O)c2ccc(OC)cc2)cc1 [Compound 7866],79.3
2,O=S(=O)(c1ccc(Cl)cc1)N1CCC2(CC1)OCCN2S(=O)(=O)c1ccc(Cl)cc1 [Compound C0067],82.9

# Same assay, conditions: Series C-1; 0.1 μM compound; [35S]GTPγS binding to Gαo, striatal membranes
row,SMILES,Concentration of FLNA-Binding Compound as Agonist 0.1 μM [%]
1,COc1ccc(S(=O)(=O)N2CCC3(CC2)OCCN3S(=O)(=O)c2ccc(OC)cc2)cc1 [Compound 7866],152.3
2,O=S(=O)(c1ccc(Cl)cc1)N1CCC2(CC1)OCCN2S(=O)(=O)c1ccc(Cl)cc1 [Compound C0067],142.7

# Same assay, conditions: Series C-1; 1 μM compound + 1 μM β-FNA
row,SMILES,Concentration of FLNA-Binding Compound as Agonist 1 μM + BFNA [%]
1,COc1ccc(S(=O)(=O)N2CCC3(CC2)OCCN3S(=O)(=O)c2ccc(OC)cc2)cc1 [Compound 7866],62.4
2,O=S(=O)(c1ccc(Cl)cc1)N1CCC2(CC1)OCCN2S(=O)(=O)c1ccc(Cl)cc1 [Compound C0067],33.5

# Same assay, conditions: Series C-1; 1 μM compound + β-FNA, relative to DAMGO + BFNA
row,SMILES,% DAMGO + BFNA [%]
1,COc1ccc(S(=O)(=O)N2CCC3(CC2)OCCN3S(=O)(=O)c2ccc(OC)cc2)cc1 [Compound 7866],129.5
2,O=S(=O)(c1ccc(Cl)cc1)N1CCC2(CC1)OCCN2S(=O)(=O)c1ccc(Cl)cc1 [Compound C0067],97.1

# Same assay, conditions: Series C-1; 1 μM compound, relative to DAMGO
row,SMILES,% DAMGO (1 μM) [%]
1,COc1ccc(S(=O)(=O)N2CCC3(CC2)OCCN3S(=O)(=O)c2ccc(OC)cc2)cc1 [Compound 7866],94.8
2,O=S(=O)(c1ccc(Cl)cc1)N1CCC2(CC1)OCCN2S(=O)(=O)c1ccc(Cl)cc1 [Compound C0067],81.5

# Same assay, conditions: Series C-1; 1 μM compound; [35S]GTPγS binding to Gαo, striatal membranes
row,SMILES,Concentration of FLNA-Binding Compound as Agonist 1 μM [%]
1,COc1ccc(S(=O)(=O)N2CCC3(CC2)OCCN3S(=O)(=O)c2ccc(OC)cc2)cc1 [Compound 7866],308.2
2,O=S(=O)(c1ccc(Cl)cc1)N1CCC2(CC1)OCCN2S(=O)(=O)c1ccc(Cl)cc1 [Compound C0067],179.0

# Same assay, conditions: Series C-2; 0.1 μM compound, relative to DAMGO
row,SMILES,% DAMGO (0.1 μM) [%]
1,CC(=O)c1ccc(S(=O)(=O)N2CCC3(CC2)NCCS3)cc1 [Compound C0060],114.8
2,CC(=O)c1ccc(S(=O)(=O)N2CC(CN(C)C)OC23CCNCC3)cc1 (stereo not drawn) [Compound C0118M],87.8
3,CN1CCC2(CC1)OCCN2S(=O)(=O)c1ccc(S(C)(=O)=O)cc1 [Compound C0106M],102.5
4,O=C1CN(C2CCc3ccccc3C2)C2(CCN(S(=O)(=O)c3ccccc3)CC2)N1 (stereo not drawn) [C0136M(P5)],93.4

# Same assay, conditions: Series C-2; 0.1 μM compound; [35S]GTPγS binding to Gαo, striatal membranes
row,SMILES,"MOR agonist activity, percent [35S]GTPγS binding at the stated compound concentration [%]"
1,CC(=O)c1ccc(S(=O)(=O)N2CCC3(CC2)NCCS3)cc1 [Compound C0060],166.5
2,CC(=O)c1ccc(S(=O)(=O)N2CC(CN(C)C)OC23CCNCC3)cc1 (stereo not drawn) [Compound C0118M],166.2
3,CN1CCC2(CC1)OCCN2S(=O)(=O)c1ccc(S(C)(=O)=O)cc1 [Compound C0106M],171.8
4,O=C1CN(C2CCc3ccccc3C2)C2(CCN(S(=O)(=O)c3ccccc3)CC2)N1 (stereo not drawn) [C0136M(P5)],176.8

# Same assay, conditions: Series C-2; 1 μM compound + 1 μM β-FNA
row,SMILES,"MOR agonist activity, percent [35S]GTPγS binding at the stated compound concentration [%]"
1,CC(=O)c1ccc(S(=O)(=O)N2CCC3(CC2)NCCS3)cc1 [Compound C0060],143.9
2,CC(=O)c1ccc(S(=O)(=O)N2CC(CN(C)C)OC23CCNCC3)cc1 (stereo not drawn) [Compound C0118M],79.2
3,CN1CCC2(CC1)OCCN2S(=O)(=O)c1ccc(S(C)(=O)=O)cc1 [Compound C0106M],117.2
4,O=C1CN(C2CCc3ccccc3C2)C2(CCN(S(=O)(=O)c3ccccc3)CC2)N1 (stereo not drawn) [C0136M(P5)],74.5

# Same assay, conditions: Series C-2; 1 μM compound + β-FNA, relative to DAMGO + BFNA
row,SMILES,% DAMGO + BFNA [%]
1,CC(=O)c1ccc(S(=O)(=O)N2CCC3(CC2)NCCS3)cc1 [Compound C0060],327.0
2,CC(=O)c1ccc(S(=O)(=O)N2CC(CN(C)C)OC23CCNCC3)cc1 (stereo not drawn) [Compound C0118M],163.3
3,CN1CCC2(CC1)OCCN2S(=O)(=O)c1ccc(S(C)(=O)=O)cc1 [Compound C0106M],246.7
4,O=C1CN(C2CCc3ccccc3C2)C2(CCN(S(=O)(=O)c3ccccc3)CC2)N1 (stereo not drawn) [C0136M(P5)],153.6

# Same assay, conditions: Series C-2; 1 μM compound, relative to DAMGO
row,SMILES,% DAMGO (1 μM) [%]
1,CC(=O)c1ccc(S(=O)(=O)N2CCC3(CC2)NCCS3)cc1 [Compound C0060],93.9
2,CC(=O)c1ccc(S(=O)(=O)N2CC(CN(C)C)OC23CCNCC3)cc1 (stereo not drawn) [Compound C0118M],105.4
3,CN1CCC2(CC1)OCCN2S(=O)(=O)c1ccc(S(C)(=O)=O)cc1 [Compound C0106M],108.3
4,O=C1CN(C2CCc3ccccc3C2)C2(CCN(S(=O)(=O)c3ccccc3)CC2)N1 (stereo not drawn) [C0136M(P5)],95.6

# Same assay, conditions: Series C-2; 1 μM compound; [35S]GTPγS binding to Gαo, striatal membranes
row,SMILES,"MOR agonist activity, percent [35S]GTPγS binding at the stated compound concentration [%]"
1,CC(=O)c1ccc(S(=O)(=O)N2CCC3(CC2)NCCS3)cc1 [Compound C0060],218.9
2,CC(=O)c1ccc(S(=O)(=O)N2CC(CN(C)C)OC23CCNCC3)cc1 (stereo not drawn) [Compound C0118M],261.5
3,CN1CCC2(CC1)OCCN2S(=O)(=O)c1ccc(S(C)(=O)=O)cc1 [Compound C0106M],240.7
4,O=C1CN(C2CCc3ccccc3C2)C2(CCN(S(=O)(=O)c3ccccc3)CC2)N1 (stereo not drawn) [C0136M(P5)],237.3

# Target: FLNA pentapeptide of SEQ ID NO: 1 (Bn-VAKGL) (Homo sapiens, UniProt P21333)
# Test: FITC-NLX-based FLNA screening assay (inhibition of FITC-naloxone binding to Bn-VAKGL on streptavidin plates)
# Settings: FLNA-binding compound 0.01 μM; 10 nM FITC-NLX; read-out: Percent Binding Inhibition
row,SMILES,inhibition at 0.01 µM [%]
1,CC(=O)c1ccc(S(=O)(=O)N2CCC3(CC2)NCCS3)cc1 [Compound C0060],60.3
2,COc1ccc(S(=O)(=O)N2CCC3(CC2)OCCN3S(=O)(=O)c2ccc(OC)cc2)cc1 [Compound 7866],38.5
3,O=S(=O)(c1ccc(Cl)cc1)N1CCC2(CC1)OCCN2S(=O)(=O)c1ccc(Cl)cc1 [Compound C0067],31.3

# Same assay, conditions: FLNA-binding compound 0.1 μM; 10 nM FITC-NLX; read-out: Percent Binding Inhibition
row,SMILES,inhibition at 0.1 µM [%]
1,CC(=O)c1ccc(S(=O)(=O)N2CCC3(CC2)NCCS3)cc1 [Compound C0060],64
2,COc1ccc(S(=O)(=O)N2CCC3(CC2)OCCN3S(=O)(=O)c2ccc(OC)cc2)cc1 [Compound 7866],47.9
3,O=S(=O)(c1ccc(Cl)cc1)N1CCC2(CC1)OCCN2S(=O)(=O)c1ccc(Cl)cc1 [Compound C0067],39.7

# Same assay, conditions: FLNA-binding compound 1 μM; 10 nM FITC-NLX; read-out: Percent Binding Inhibition
row,SMILES,inhibition at 1 µM [%]
1,CC(=O)c1ccc(S(=O)(=O)N2CCC3(CC2)NCCS3)cc1 [Compound C0060],68
2,COc1ccc(S(=O)(=O)N2CCC3(CC2)OCCN3S(=O)(=O)c2ccc(OC)cc2)cc1 [Compound 7866],53.4
3,O=S(=O)(c1ccc(Cl)cc1)N1CCC2(CC1)OCCN2S(=O)(=O)c1ccc(Cl)cc1 [Compound C0067],45

# Same assay, conditions: read-out: Percent Binding Inhibition, FLNA-binding compound 0.01 μM; 10 nM FITC-NLX
row,SMILES,inhibition at 0.01 µM [%]
1,CC(=O)c1ccc(S(=O)(=O)N2CC(CN(C)C)OC23CCNCC3)cc1 (stereo not drawn) [Compound C0118M],56.6
2,CN1CCC2(CC1)OCCN2S(=O)(=O)c1ccc(S(C)(=O)=O)cc1 [Compound C0106M],45.8
3,O=C1CN(C2CCc3ccccc3C2)C2(CCN(S(=O)(=O)c3ccccc3)CC2)N1 (stereo not drawn) [C0136M(P5)],46.7

# Same assay, conditions: read-out: Percent Binding Inhibition, FLNA-binding compound 0.1 μM; 10 nM FITC-NLX
row,SMILES,inhibition at 0.1 µM [%]
1,CC(=O)c1ccc(S(=O)(=O)N2CC(CN(C)C)OC23CCNCC3)cc1 (stereo not drawn) [Compound C0118M],61.4
2,CN1CCC2(CC1)OCCN2S(=O)(=O)c1ccc(S(C)(=O)=O)cc1 [Compound C0106M],55.6
3,O=C1CN(C2CCc3ccccc3C2)C2(CCN(S(=O)(=O)c3ccccc3)CC2)N1 (stereo not drawn) [C0136M(P5)],55.2

# Same assay, conditions: read-out: Percent Binding Inhibition, FLNA-binding compound 1 μM; 10 nM FITC-NLX
row,SMILES,inhibition at 1 µM [%]
1,CC(=O)c1ccc(S(=O)(=O)N2CC(CN(C)C)OC23CCNCC3)cc1 (stereo not drawn) [Compound C0118M],62.4
2,CN1CCC2(CC1)OCCN2S(=O)(=O)c1ccc(S(C)(=O)=O)cc1 [Compound C0106M],58.9
3,O=C1CN(C2CCc3ccccc3C2)C2(CCN(S(=O)(=O)c3ccccc3)CC2)N1 (stereo not drawn) [C0136M(P5)],58.2
